Measurements as given in patent publication US11207320B2, “Compositions and methods for cancer expressing PDE3A or SLFN12” (The Broad Institute, Inc., priority 2015, dated 2021).
Like-named read-outs stand apart in the source and are kept apart here. Values belong to the compound of their own block, whether it stands above or below them.

Assays:
PDE10A1 = target: T1, PDE10A1 (Homo sapiens, UniProt Q9Y233); experiment: Phosphodiesterase inhibition reactions (Caliper panel); type: biochemical; conditions: PDE10A1, 100 nM
T1 construct: Caliper
Method: (§1) DNMDP concentration was 100 nM.

PDE10A2 = target: T2, PDE10A2 (Homo sapiens, UniProt Q9Y233); experiment: as above; type: biochemical; conditions: PDE10A2, 100 nM
T2 construct: Caliper
Method: as §1

PDE11A = target: T3, PDE11A (Homo sapiens, UniProt Q9HCR9); experiment: as above; type: biochemical; conditions: 100 nM
T3 construct: Caliper
Method: as §1

PDE1A1 = experiment: as above; type: biochemical; conditions: PDE1A1, 100 nM
Method: as §1

PDE1B = target: T4, PDE1B (Homo sapiens, UniProt Q01064); experiment: as above; type: biochemical; conditions: 100 nM
T4 construct: Caliper
Method: as §1

PDE1C = target: T5, PDE1C (Homo sapiens, UniProt Q14123); experiment: as above; type: biochemical; conditions: 100 nM
T5 construct: Caliper
Method: as §1

PDE2A = target: T6, PDE2A (Homo sapiens, UniProt O00408); experiment: as above; type: biochemical; conditions: 100 nM
T6 construct: Caliper
Method: as §1

PDE3A = PDE3A (Homo sapiens, UniProt Q14432); experiment: as above; type: biochemical; conditions: 100 nM
Method: as §1

PDE3B = target: T7, PDE3B (Homo sapiens, UniProt Q13370); experiment: as above; type: biochemical; conditions: 100 nM
T7 construct: Caliper
Method: as §1

PDE4A1A = target: T8, PDE4A1A (Homo sapiens, UniProt P27815); experiment: as above; type: biochemical; conditions: 100 nM
T8 construct: Caliper
Method: as §1

PDE4B1 = target: T9, PDE4B1 (Homo sapiens, UniProt Q07343); experiment: as above; type: biochemical; conditions: PDE4B1, 100 nM
T9 construct: Caliper
Method: as §1

PDE4C1 = target: T10, PDE4C1 (Homo sapiens, UniProt Q08493); experiment: as above; type: biochemical; conditions: PDE4C1, 100 nM
T10 construct: Caliper
Method: as §1

PDE4D3 = target: T11, PDE4D3 (Homo sapiens, UniProt Q08499); experiment: as above; type: biochemical; conditions: PDE4D3, 100 nM
T11 construct: Caliper
Method: as §1

PDE4D7 = target: T12, PDE4D7 (Homo sapiens, UniProt Q08499); experiment: as above; type: biochemical; conditions: PDE4D7, 100 nM
T12 construct: Caliper
Method: as §1

PDE5A1 = target: T13, PDE5A1 (Homo sapiens, UniProt O76074); experiment: as above; type: biochemical; conditions: PDE5A1, 100 nM
T13 construct: Caliper
Method: as §1

PDE7A = target: T14, PDE7A (Homo sapiens, UniProt Q13946); experiment: as above; type: biochemical; conditions: 100 nM
T14 construct: Caliper
Method: as §1

PDE7B = target: T15, PDE7B (Homo sapiens, UniProt Q9NP56); experiment: as above; type: biochemical; conditions: 100 nM
T15 construct: Caliper
Method: as §1

PDE8A1 = target: T16, PDE8A1 (Homo sapiens, UniProt O60658); experiment: as above; type: biochemical; conditions: PDE8A1, 100 nM
T16 construct: Caliper
Method: as §1

PDE9A2 = target: T17, PDE9A2 (Homo sapiens, UniProt O76083); experiment: as above; type: biochemical; conditions: PDE9A2, 100 nM
T17 construct: Caliper
Method: as §1

HeLa cells = type: cell-based; conditions: co-treated with DNMDP, 48 hours
Method: HeLa cells were co-treated with 30 nM DNMDP (the EC70 concentration) and 20 μM of each bioactive compound. Cell viability after 48-hour treatment was assessed by ATP consumption as described earlier.
1000 HeLa cells were plated in a 384-well plate in 40 μl of DMEM supplemented with 10% Fetal Bovine Serum and 1% Pen/Strep. 24 hours after plating, a compound-library of 1600 bioactive molecules (Pharmacon) was added at a concentration of 20 μM. In parallel to bioactive compound incubation, DNMDP was added to a final concentration of 30 nM and incubated for 48 hours. Cell viability was assessed as described in Compound library screening in NCI-H1734 and A549 cell lines.

[1] = replicate #1, read-out: % inh. #1
[2] = replicate #2, read-out: % inh. #2

T4 sequence (Q01064 whole entry, species assumed): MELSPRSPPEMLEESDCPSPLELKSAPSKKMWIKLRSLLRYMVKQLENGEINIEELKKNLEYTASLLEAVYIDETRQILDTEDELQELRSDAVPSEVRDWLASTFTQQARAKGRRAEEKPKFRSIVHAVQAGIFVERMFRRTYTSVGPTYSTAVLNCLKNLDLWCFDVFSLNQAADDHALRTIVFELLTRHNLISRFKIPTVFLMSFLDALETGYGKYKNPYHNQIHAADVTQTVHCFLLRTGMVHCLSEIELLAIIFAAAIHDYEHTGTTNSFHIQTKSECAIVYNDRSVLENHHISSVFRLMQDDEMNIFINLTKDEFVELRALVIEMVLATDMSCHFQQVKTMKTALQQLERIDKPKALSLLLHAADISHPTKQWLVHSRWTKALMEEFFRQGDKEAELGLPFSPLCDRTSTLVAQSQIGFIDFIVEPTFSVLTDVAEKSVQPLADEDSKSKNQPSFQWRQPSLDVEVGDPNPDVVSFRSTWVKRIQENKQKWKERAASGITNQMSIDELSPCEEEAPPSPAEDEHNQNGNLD
T14 sequence (Q13946 whole entry, species assumed): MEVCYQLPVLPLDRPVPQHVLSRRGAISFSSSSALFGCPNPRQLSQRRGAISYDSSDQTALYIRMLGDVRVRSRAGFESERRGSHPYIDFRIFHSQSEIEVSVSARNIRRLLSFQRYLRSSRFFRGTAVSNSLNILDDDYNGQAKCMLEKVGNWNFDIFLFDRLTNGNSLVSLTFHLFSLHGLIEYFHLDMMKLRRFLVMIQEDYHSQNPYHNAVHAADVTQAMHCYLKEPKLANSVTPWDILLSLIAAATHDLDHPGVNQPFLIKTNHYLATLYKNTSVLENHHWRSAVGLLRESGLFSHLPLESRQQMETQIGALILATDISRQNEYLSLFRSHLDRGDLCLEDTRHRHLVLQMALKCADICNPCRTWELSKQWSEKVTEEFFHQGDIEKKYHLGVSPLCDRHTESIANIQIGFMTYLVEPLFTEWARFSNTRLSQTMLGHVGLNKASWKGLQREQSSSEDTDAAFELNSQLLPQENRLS
T8 sequence (P27815 1-647 isoform P27815-4): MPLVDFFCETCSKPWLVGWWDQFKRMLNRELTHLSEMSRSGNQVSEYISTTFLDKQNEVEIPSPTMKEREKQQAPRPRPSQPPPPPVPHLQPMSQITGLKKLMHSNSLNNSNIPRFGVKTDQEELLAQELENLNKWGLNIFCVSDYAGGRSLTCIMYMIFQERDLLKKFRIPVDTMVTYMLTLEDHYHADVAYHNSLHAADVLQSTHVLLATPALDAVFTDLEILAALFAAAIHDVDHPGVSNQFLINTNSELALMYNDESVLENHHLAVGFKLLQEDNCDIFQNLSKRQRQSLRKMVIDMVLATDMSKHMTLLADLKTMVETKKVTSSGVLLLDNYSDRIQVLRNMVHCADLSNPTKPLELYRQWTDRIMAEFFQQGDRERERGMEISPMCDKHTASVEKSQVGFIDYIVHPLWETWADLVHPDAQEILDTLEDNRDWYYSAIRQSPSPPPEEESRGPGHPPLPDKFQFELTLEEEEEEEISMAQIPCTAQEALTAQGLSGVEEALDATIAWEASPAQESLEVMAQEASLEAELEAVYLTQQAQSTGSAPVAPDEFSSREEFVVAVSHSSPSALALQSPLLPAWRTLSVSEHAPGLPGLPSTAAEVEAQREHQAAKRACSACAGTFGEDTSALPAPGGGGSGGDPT
T3 sequence (Q9HCR9 whole entry, species assumed): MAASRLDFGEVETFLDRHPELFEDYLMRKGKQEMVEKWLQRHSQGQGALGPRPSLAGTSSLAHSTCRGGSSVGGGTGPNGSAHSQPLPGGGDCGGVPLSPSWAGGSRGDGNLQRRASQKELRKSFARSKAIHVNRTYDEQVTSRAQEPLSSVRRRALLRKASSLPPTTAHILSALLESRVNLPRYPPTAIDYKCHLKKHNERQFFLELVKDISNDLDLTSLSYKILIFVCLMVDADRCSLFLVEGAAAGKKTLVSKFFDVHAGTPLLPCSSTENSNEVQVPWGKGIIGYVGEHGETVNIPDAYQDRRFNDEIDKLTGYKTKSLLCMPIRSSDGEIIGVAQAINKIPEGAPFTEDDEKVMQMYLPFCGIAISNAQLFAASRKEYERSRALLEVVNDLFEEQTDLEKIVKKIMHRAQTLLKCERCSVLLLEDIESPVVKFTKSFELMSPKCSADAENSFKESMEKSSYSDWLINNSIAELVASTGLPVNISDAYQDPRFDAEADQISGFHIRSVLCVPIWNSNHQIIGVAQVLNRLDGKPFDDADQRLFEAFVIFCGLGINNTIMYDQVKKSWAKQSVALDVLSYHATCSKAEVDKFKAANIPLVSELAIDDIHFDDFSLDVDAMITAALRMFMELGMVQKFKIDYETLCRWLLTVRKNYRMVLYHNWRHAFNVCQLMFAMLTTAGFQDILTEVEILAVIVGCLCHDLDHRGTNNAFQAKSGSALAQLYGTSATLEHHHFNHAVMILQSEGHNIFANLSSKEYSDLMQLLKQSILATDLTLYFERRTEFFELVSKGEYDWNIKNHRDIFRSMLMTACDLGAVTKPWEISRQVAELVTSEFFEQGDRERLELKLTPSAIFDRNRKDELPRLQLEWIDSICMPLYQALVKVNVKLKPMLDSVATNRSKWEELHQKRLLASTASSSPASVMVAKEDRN
T2 sequence (Q9Y233 267-1055, species assumed): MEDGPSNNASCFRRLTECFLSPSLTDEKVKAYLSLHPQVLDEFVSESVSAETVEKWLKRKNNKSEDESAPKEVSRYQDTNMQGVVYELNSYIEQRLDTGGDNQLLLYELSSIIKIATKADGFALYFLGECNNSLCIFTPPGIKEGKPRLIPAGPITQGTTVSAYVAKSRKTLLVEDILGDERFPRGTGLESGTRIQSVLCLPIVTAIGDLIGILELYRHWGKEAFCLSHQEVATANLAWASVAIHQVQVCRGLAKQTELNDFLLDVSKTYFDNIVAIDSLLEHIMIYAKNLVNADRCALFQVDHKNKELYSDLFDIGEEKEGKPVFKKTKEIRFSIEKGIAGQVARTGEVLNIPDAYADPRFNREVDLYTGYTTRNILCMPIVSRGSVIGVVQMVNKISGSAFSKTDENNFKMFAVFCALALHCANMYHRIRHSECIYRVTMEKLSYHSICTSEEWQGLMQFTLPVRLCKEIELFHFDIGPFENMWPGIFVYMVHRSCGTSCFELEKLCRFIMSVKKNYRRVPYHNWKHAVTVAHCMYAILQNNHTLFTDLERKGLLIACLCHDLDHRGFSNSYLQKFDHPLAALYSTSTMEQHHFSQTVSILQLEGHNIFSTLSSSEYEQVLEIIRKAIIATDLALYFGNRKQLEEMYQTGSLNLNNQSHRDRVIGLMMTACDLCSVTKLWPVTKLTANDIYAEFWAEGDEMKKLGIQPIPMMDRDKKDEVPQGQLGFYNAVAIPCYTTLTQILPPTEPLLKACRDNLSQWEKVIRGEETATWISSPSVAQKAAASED
T16 sequence (O60658 whole entry, species assumed): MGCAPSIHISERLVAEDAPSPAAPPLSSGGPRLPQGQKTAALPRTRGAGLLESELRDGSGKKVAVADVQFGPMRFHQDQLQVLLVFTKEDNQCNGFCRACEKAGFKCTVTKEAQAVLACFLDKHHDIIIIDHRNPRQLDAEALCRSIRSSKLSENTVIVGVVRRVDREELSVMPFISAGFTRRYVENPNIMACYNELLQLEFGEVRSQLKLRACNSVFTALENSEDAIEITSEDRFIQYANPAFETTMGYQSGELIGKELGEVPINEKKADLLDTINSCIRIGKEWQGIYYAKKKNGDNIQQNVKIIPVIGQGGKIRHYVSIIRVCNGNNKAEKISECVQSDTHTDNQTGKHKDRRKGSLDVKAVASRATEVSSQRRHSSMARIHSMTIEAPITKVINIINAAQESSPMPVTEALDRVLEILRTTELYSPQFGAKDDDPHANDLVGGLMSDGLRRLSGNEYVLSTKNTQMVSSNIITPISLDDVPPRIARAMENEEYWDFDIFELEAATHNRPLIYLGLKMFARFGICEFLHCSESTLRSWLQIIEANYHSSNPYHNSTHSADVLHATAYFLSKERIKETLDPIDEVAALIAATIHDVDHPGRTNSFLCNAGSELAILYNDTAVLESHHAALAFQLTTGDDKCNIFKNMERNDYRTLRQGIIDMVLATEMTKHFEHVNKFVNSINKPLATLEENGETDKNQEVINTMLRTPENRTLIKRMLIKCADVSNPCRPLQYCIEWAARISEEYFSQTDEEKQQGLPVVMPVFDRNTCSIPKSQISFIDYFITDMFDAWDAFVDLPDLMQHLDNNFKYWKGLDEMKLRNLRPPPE
T17 sequence (O76083 1-533 isoform O76083-2, species assumed): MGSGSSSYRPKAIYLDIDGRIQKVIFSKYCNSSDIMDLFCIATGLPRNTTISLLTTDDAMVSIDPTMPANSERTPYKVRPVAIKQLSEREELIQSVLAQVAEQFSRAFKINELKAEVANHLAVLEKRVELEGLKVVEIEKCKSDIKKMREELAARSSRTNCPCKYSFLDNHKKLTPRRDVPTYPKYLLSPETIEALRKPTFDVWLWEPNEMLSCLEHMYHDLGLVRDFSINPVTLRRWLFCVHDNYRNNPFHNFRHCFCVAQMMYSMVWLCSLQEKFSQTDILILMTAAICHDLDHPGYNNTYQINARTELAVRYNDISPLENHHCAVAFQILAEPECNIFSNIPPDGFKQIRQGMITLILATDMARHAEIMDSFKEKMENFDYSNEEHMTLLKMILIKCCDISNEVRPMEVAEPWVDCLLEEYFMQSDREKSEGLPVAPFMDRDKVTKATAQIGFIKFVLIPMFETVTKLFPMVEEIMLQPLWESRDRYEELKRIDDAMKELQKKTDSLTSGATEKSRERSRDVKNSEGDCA

- inhibition at 0.1 µM (PDE10A1; [1]): 61%
- inhibition at 0.1 µM (PDE10A1; [2]): 65%
- inhibition at 0.1 µM (PDE10A1; read-out: % inhibition): 63%
- inhibition at 0.1 µM (PDE10A2; [1]): 67%
- inhibition at 0.1 µM (PDE10A2; [2]): 70%
- inhibition at 0.1 µM (PDE10A2; read-out: % inhibition): 68%
- inhibition at 0.1 µM (PDE11A; read-out: % inhibition): 16%
- inhibition at 0.1 µM (PDE11A; [1]): 14%
- inhibition at 0.1 µM (PDE11A; [2]): 18%
- % inhibition (PDE1A1): 5%
- % inh. #1 (PDE1A1; replicate #1): 3%
- % inh. #2 (PDE1A1; replicate #2): 7%
- inhibition at 0.1 µM (PDE1B; read-out: % inhibition): -2%
- inhibition at 0.1 µM (PDE1B; [1]): -5%
- inhibition at 0.1 µM (PDE1B; [2]): 0%
- inhibition at 0.1 µM (PDE1C; read-out: % inhibition): 5%
- inhibition at 0.1 µM (PDE1C; [1]): 2%
- inhibition at 0.1 µM (PDE1C; [2]): 9%
- inhibition at 0.1 µM (PDE2A; read-out: % inhibition): 8%
- inhibition at 0.1 µM (PDE2A; [1]): 6%
- inhibition at 0.1 µM (PDE2A; [2]): 10%
- inhibition at 0.1 µM (PDE3A; read-out: % inhibition): 95%
- inhibition at 0.1 µM (PDE3A; [1]): 95%
- inhibition at 0.1 µM (PDE3A; [2]): 95%
- inhibition at 0.1 µM (PDE3B; read-out: % inhibition): 97%
- inhibition at 0.1 µM (PDE3B; [1]): 98%
- inhibition at 0.1 µM (PDE3B; [2]): 97%
- inhibition at 0.1 µM (PDE4A1A; read-out: % inhibition): 16%
- inhibition at 0.1 µM (PDE4A1A; [1]): 14%
- inhibition at 0.1 µM (PDE4A1A; [2]): 18%
- inhibition at 0.1 µM (PDE4B1; [1]): 21%
- inhibition at 0.1 µM (PDE4B1; [2]): 20%
- inhibition at 0.1 µM (PDE4B1; read-out: % inhibition): 21%
- inhibition at 0.1 µM (PDE4C1; [1]): 10%
- inhibition at 0.1 µM (PDE4C1; [2]): 14%
- inhibition at 0.1 µM (PDE4C1; read-out: % inhibition): 12%
- inhibition at 0.1 µM (PDE4D3; [1]): 14%
- inhibition at 0.1 µM (PDE4D3; [2]): 16%
- inhibition at 0.1 µM (PDE4D3; read-out: % inhibition): 15%
- inhibition at 0.1 µM (PDE4D7; [1]): 19%
- inhibition at 0.1 µM (PDE4D7; [2]): 20%
- inhibition at 0.1 µM (PDE4D7; read-out: % inhibition): 20%
- inhibition at 0.1 µM (PDE5A1; [1]): 16%
- inhibition at 0.1 µM (PDE5A1; [2]): 16%
- inhibition at 0.1 µM (PDE5A1; read-out: % inhibition): 16%
- inhibition at 0.1 µM (PDE7A; read-out: % inhibition): 22%
- inhibition at 0.1 µM (PDE7A; [1]): 24%
- inhibition at 0.1 µM (PDE7A; [2]): 20%
- inhibition at 0.1 µM (PDE7B; read-out: % inhibition): 8%
- inhibition at 0.1 µM (PDE7B; [1]): 5%
- inhibition at 0.1 µM (PDE7B; [2]): 11%
- inhibition at 0.1 µM (PDE8A1; [1]): 10%
- inhibition at 0.1 µM (PDE8A1; [2]): 12%
- inhibition at 0.1 µM (PDE8A1; read-out: % inhibition): 11%
- inhibition at 0.1 µM (PDE9A2; [1]): 0%
- inhibition at 0.1 µM (PDE9A2; [2]): 5%
- inhibition at 0.1 µM (PDE9A2; read-out: % inhibition): 2%
SMILES: CCN(CC)c1ccc(C2=NNC(=O)CC2C)cc1[N+](=O)[O-] (stereo not shown) [DNMDP, 6-(4-(diethylamino)-3-nitrophenyl)-5-methyl-4,5-dihydropyridazin-3(2H)-one]

SMILES: COc1cc2c(cc1OC)-c1c/c(=N\c3c(C)cc(C)cc3C)n(C)c(=O)n1CC2 [trequinsin, 9,10-dimethoxy-3-methyl-2-(2,4,6-trimethylphenyl)imino-6,7-dihydropyrimido[6,1-a]isoquinolin-4-one]
- RC50 (the concentration at which it achieved 50% rescue) (HeLa cells): < 1 nM
